What is called EC50 is the midpoint of the concentration-response curve. A low value points to a more potent agent.

SMILES strings stand for the structures.

The subject of one test is parasites (ring stage, in human red blood cell culture). The experiment in a line: Parasite LDH growth assay (antiparasite potency, Parasite Assay). It counts as cell-based, Plasmodium falciparum. To be noted: 0.7% rings, 2% haematocrit, 72 hours at 37° C., LDH readout of parasite growth. An outline of the steps: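 Growth was read by an LDH assay after a freeze–thaw cycle (−80 °C overnight, 4 h thaw at RT). Before that, parasites grew with compound for 72 h at 37 °C under gassed, humidified conditions. The input was a ring-stage culture adjusted to 0.7% parasitemia and 2% haematocrit in serum (5%)/albumax (0.5%)-supplemented RPMI-Hepes.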
Compound `CC(C)[C@]1(C)CC(=O)N([C@@H]2CC(C)(C)Oc3ccc(C(=O)N[C@@H]4c5ccccc5CC4(C)O)cc32)C(=N)N1` (single isomer, unassigned) [Example 43A] gave an EC50 of 8.1 nM.

Consider `CC(C)[C@]1(C)CC(=O)N([C@@H]2CC(C)(C)Oc3ccc(C(=O)N[C@@H]4c5ccccc5OC[C@H]4O)cc32)C(=N)N1` [Example 45A, (R)-N-((3S,4R)-3-hydroxychroman-4-yl)-4-((S)-2-imino-4-isopropyl-4-methyl-6-oxotetrahydropyrimidin-1(2H)-yl)-2,2-dimethylchromane-6-carboxamide], for which the EC50 is 2.6 nM.

`CC1(C)CC(=O)N([C@@H]2CCOc3ccc(C(=O)NC4c5ccccc5OCC4(O)C(F)(F)F)cc32)C(=N)N1` (single isomer, unassigned) [Example 234C] registered an EC50 of 43.2 nM.

`CCC1(CC)CC(=O)N([C@@H]2CCOc3ccc(C(=O)NC4c5ccccc5OC4(C)COC)cc32)C(=N)N1` (single isomer, unassigned) [Example 64B] yielded an EC50 of 0.9 nM.

With `CCC1(CC)CC(=O)N([C@@H]2CCOc3ccc(C(=O)N[C@@H]4c5ccccc5OC(C(F)(F)F)C4O)cc32)C(=N)N1` (single isomer, unassigned) [Example 32B], a half-maximal response (EC50) required 290 nM.

Still in this test, the particulars now being: Plasmodium falciparum, Erythrocyte, 72 h, 0.7% rings, 2% haematocrit, 72 hours at 37° C., LDH readout of parasite growth.
With `C[C@@H]1C[C@@H](N2C(=N)NC(C)(C)CC2=O)c2cc(C(=O)N[C@@H]3c4ccccc4OC[C@@]3(C)O)ccc21` [Example 104, (1R,3R)-N-[(3S,4R)-3-hydroxy-3-methyl-chroman-4-yl]-3-(2-imino-4,4-dimethyl-6-oxo-hexahydropyrimidin-1-yl)-1-methyl-indane-5-carboxamide], it took 5 nM to reach a half-maximal effect (EC50).

In the case of `CC1(C)CC(=O)N([C@@H]2CC(C)(C)Oc3ccc(C(=O)N[C@H]4c5cc(F)ccc5OC(C)(C)[C@@H]4O)cc32)C(=N)N1` [Example 58A, (R)-N-((3R,4S)-6-fluoro-3-hydroxy-2,2-dimethylchroman-4-yl)-4-(2-imino-4,4-dimethyl-6-oxotetrahydropyrimidin-1(2H)-yl)-2,2-dimethylchromane-6-carboxamide], the EC50 was determined as 250 nM.

`CC[C@@]1(C)CC(=O)N(C2c3cc(C(=O)N[C@H]4CC(C)(C)Oc5ccccc54)ccc3OCC2O)C(=N)N1` (stereo partly drawn) [Example 177, N-[(4S)-2,2-dimethylchroman-4-yl]-4-[(4S)-4-ethyl-2-imino-4-methyl-6-oxo-hexahydropyrimidin-1-yl]-3-hydroxy-chromane-6-carboxamide] displayed an EC50 of 66.9 nM.

In turn, `CCC1(CC)CC(=O)N([C@@H]2CCOc3ccc(C(=O)N[C@@H]4c5ccccc5CC4(C)O)cc32)C(=N)N1` (single isomer, unassigned) [Example 44A] came in with an EC50 of 1.5 nM.

The compound `CC1(C)CC(=O)N(C2CC(C)(C)c3ccc(C(=O)N[C@@H]4c5ccccc5C[C@H]4O)cc32)C(=N)N1` (stereo partly drawn) [Example 86, N-[(1R,2R)-2-hydroxyindan-1-yl]-3-(2-imino-4,4-dimethyl-6-oxo-hexahydropyrimidin-1-yl)-1,1-dimethyl-indane-5-carboxamide] had an EC50 of 87.8 nM.

As for `CCC1(CC)CC(=O)N([C@H]2C[C@H](OC)c3ccc(C(=O)N[C@@H]4c5ccccc5OC(C)(C)[C@H]4O)cc32)C(=N)N1` [Example 237, (1S,3S)-3-(4,4-diethyl-2-imino-6-oxo-hexahydropyrimidin-1-yl)-N-[(3S,4R)-3-hydroxy-2,2-dimethyl-chroman-4-yl]-1-methoxy-indane-5-carboxamide], the EC50 came out at 240 nM.

Compound `CCC1(CC)CC(=O)N([C@@H]2C[C@@H](OC)c3ccc(C(=O)N[C@@H]4c5ccccc5C[C@@]4(C)O)cc32)C(=N)N1` [Example 157, (1R,3R)-3-(4,4-diethyl-2-imino-6-oxo-hexahydropyrimidin-1-yl)-N-[(1R,2R)-2-hydroxy-2-methyl-indan-1-yl]-1-methoxy-indane-5-carboxamide] returned an EC50 of 19.9 nM.

For the compound `CCC1(CC)CC(=O)N([C@@H]2CCOc3ccc(C(=O)N[C@@H]4c5ccccc5C[C@H]4O)cc32)C(=N)N1` [Example 5A, (R)-4-(4,4-diethyl-2-imino-6-oxotetrahydropyrimidin-1(2H)-yl)-N-((1R,2R)-2-hydroxy-2,3-dihydro-1H-inden-1-yl)chromane-6-carboxamide], the EC50 came out at 5.9 nM.

Compound `CCC1(CC)CC(=O)N([C@@H]2CCCOc3ccc(C(=O)N[C@@H]4c5ccccc5OC[C@@]4(C)O)cc32)C(=N)N1` [Example 211, (5R)-5-(4,4-diethyl-2-imino-6-oxo-hexahydropyrimidin-1-yl)-N-[(3S,4R)-3-hydroxy-3-methyl-chroman-4-yl]-2,3,4,5-tetrahydro-1-benzoxepine-7-carboxamide] showed an EC50 of 8.9 nM.

The compound `CCC1(CC)CC(=O)N([C@H]2c3cc(C(=O)NC4c5ccccc5C(F)(F)[C@@H]4O)ccc3O[C@@]2(C)COC)C(=N)N1` (stereo in doubt) [Example 291, (2R,3S)-3-(4,4-diethyl-2-imino-6-oxo-hexahydropyrimidin-1-yl)-N-[(1S,2R)-3,3-difluoro-2-hydroxy-indan-1-yl]-2-(methoxymethyl)-2-methyl-3H-benzofuran-5-carboxamide] returned an EC50 of 240 nM.

With `CCC1(CC)CC(=O)N([C@H]2c3cc(C(=O)N[C@@H]4c5ccccc5OC[C@]4(C)O)ccc3O[C@]2(C)COC)C(=N)N1` [Example 278, (2S,3S)-3-(4,4-diethyl-2-imino-6-oxo-hexahydropyrimidin-1-yl)-N-[(3R,4R)-3-hydroxy-3-methyl-chroman-4-yl]-2-(methoxymethyl)-2-methyl-3H-benzofuran-5-carboxamide], the midpoint of the response, the EC50, lay at 12.2 nM.

The compound `C[C@@H]1C[C@@H](N2C(=N)NC(C)(C)CC2=O)c2cc(C(=O)N[C@@H]3c4ccccc4OC[C@]3(C)O)ccc21` [Example 103, (1R,3R)-N-[(3R,4R)-3-hydroxy-3-methyl-chroman-4-yl]-3-(2-imino-4,4-dimethyl-6-oxo-hexahydropyrimidin-1-yl)-1-methyl-indane-5-carboxamide] came in with an EC50 of 6.1 nM.

Compound `CCC1(CC)CC(=O)N([C@@H]2CCOc3ccc(C(=O)NC4CC(=O)Oc5ccccc54)cc32)C(=N)N1` (stereo partly drawn) [Example 63A, (4R)-4-(4,4-diethyl-2-imino-6-oxotetrahydropyrimidin-1(2H)-yl)-N-(2-oxochroman-4-yl)chromane-6-carboxamide] showed an EC50 of 220 nM.

The compound `CCC1(CC)CC(=O)N([C@@H]2CCOc3ccc(C(=O)N[C@@H]4c5cc(C#N)ccc5OC(C)(C)[C@H]4O)cc32)C(=N)N1` [Example 20A, (R)-N-((3S,4R)-6-cyano-3-hydroxy-2,2-dimethylchroman-4-yl)-4-(4,4-diethyl-2-imino-6-oxotetrahydropyrimidin-1(2H)-yl)chromane-6-carboxamide] returned an EC50 of 0.8 nM.

`CC[C@]1(C)CC(=O)N([C@@H]2C[C@@H](C)c3ccc(C(=O)N[C@@H]4c5ccccc5OC(C)(C)[C@H]4O)cc32)C(=N)N1` [Example 171, (1R,3R)-3-[(4R)-4-ethyl-2-imino-4-methyl-6-oxo-hexahydropyrimidin-1-yl]-N-[(3S,4R)-3-hydroxy-2,2-dimethyl-chroman-4-yl]-1-methyl-indane-5-carboxamide] came in with an EC50 of 0.7 nM.

The test system of the next test is PMIX (plasmepsin IX). The experiment in a line: Inhibition of PMIX function in parasite extracts: cleavage of PMIX substrates RAP1 and ASP, and PMIX autoprocessing. It counts as cell-based, P. falciparum. To be noted: treated parasites. The method, then: To confirm that Example 1 was a dual inhibitor of PMX and PMIX function, the ability of this compound to inhibit cleavage of the known PMIX substrate Rhoptry Associated Protein 1 (RAP1) in parasite extracts was tested (Pino et al., 2017). RAP1 is a merozoite rhoptry protein that is localized to the parasitophorous vacuole after invasion and processed by both PMIX and SUB1 (Pino et al., 2017). […] RAP1 was not released into the parasite supernatant because it was deposited in the parasitophorous vacuole during the invasion process (Baldi, D., Andrews, K., Waller, R., Roos, D., Howard, R., Crabb, B. and Cowman, A. (2000)). RAP1 controls rhoptry targeting of RAP2 in the malaria parasite Plasmodium falciparum. Embo Journal 19, 2435-2443.
The development of Example 1 as a PMIX/PMX dual inhibitor of the P. falciparum parasite has allowed for the analysis of the function of these aspartic acid proteases. To do this, PMIX was processed to a 55 kDa (p55) protein and this was not inhibited by E64.
For `CC(C)C[C@H](NC(=O)[C@H]1O[C@@H]1C(=O)O)C(=O)NCCCCN=C(N)N` [Example E64], the “ASP cleavage (p87 to p47) by PMIX” value is on record as “processed into a 47 kDa polypeptide (p47)” and the “PMIX processing to 55 kDa (p55) protein (autocatalytic cleavage)” value is listed as “not inhibited”.

The same test, now with this note: treated parasites / merozoites.
As for `CC(C)C[C@H](NC(=O)[C@H]1O[C@@H]1C(=O)O)C(=O)NCCCCN=C(N)N` [Example E64], the “RAP1 processing (p87 to p82 and p69) by PMIX and SUB1” value is “processed normally by PMIX and SUB1”.

For a further test, the target named is T1, PMX (plasmepsin X) (Plasmodium falciparum, UniProt Q8IAS0).
T1 construct: endogenous in cells
T1 sequence (Q8IAS0 222-573): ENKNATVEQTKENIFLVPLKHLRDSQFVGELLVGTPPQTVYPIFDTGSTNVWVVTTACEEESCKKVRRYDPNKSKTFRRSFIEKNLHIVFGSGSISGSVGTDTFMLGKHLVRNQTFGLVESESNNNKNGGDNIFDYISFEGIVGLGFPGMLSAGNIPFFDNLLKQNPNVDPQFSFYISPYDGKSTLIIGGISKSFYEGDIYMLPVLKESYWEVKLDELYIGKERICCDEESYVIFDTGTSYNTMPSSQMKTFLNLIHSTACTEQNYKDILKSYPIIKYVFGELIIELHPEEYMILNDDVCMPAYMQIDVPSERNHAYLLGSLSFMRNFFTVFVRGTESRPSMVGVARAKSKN
Experiment: not given
To be noted: negative control, literature (Salmon et al. 2001); cited from earlier work.
`CC(C)C[C@H](NC(=O)[C@H]1O[C@@H]1C(=O)O)C(=O)NCCCCN=C(N)N` [Example E64]: the SERAS processing result is “does not affect SERAS processing”.

Source of the values: patent publication US12350270B2, “Antimalarial agents” (Merck Sharp & Dohme LLC, priority 2019, dated 2025).
